Data on 35 molecules can be found in ChEMBL document CHEMBL4351003, “Selective Toll-like receptor 7 agonists with novel chromeno[3,4-d]imidazol-4(1H)-one and 2-(trifluoromethyl)quinoline/ quinazoline-4-amine scaffolds” (Eur J Med Chem, 2019).

As usually defined, the EC50 is the midpoint of the concentration-response curve.

Data set [1] deals with T1, Toll-like receptor 7 (Homo sapiens, UniProt Q9NYK1).
T1 sequence (Q9NYK1 whole entry): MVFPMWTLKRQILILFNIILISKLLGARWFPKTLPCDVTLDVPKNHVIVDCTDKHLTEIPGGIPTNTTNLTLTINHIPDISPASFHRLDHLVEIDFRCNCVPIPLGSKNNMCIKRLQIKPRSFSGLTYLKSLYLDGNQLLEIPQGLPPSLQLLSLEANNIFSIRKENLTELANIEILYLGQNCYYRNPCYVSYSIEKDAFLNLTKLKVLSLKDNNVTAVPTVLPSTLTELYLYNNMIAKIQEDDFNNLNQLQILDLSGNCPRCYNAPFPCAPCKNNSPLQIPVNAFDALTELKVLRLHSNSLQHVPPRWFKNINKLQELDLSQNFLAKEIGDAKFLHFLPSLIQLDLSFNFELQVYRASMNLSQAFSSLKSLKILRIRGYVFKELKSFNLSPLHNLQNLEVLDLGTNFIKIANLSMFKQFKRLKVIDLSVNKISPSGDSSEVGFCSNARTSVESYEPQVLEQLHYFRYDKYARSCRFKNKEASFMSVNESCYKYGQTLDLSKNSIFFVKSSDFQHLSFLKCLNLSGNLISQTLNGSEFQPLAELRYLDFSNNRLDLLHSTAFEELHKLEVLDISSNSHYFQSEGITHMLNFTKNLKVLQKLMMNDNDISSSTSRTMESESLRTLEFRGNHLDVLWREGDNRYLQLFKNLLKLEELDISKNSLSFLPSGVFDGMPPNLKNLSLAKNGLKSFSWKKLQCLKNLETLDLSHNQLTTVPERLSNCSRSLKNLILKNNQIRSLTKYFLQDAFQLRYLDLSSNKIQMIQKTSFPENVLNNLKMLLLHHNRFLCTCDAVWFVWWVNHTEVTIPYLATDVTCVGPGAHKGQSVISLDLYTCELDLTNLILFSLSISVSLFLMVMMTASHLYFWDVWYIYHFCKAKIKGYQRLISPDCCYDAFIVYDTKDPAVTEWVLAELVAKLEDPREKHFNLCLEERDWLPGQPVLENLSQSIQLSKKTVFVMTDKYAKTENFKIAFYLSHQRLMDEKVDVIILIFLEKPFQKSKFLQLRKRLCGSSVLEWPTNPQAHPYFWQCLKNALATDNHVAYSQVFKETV
The experiment in a line: Agonist activity at human TLR7 in HEK293 cells cotransfected with SEAP reporter gene assessed as activity of SEAP incubated for 24 hrs by quanti-blue staining based SEAP reporter gene assay. It counts as cell-based. For orientation: Reporter assays use an easily measured gene product as a stand-in for the process of interest.

A short description of data set [2]: Cytotoxicity against human HEK293 cells transfected with human TLR7/8 assessed as reduction in cell viability incubated for 24 hrs by MTS assay. Conditions: read-out: MNCC. It counts as cell-based. A general note: Tetrazolium dyes change colour on reduction, which living cells bring about.
For data set [3], the system named is PBMC. Description: Induction of TNFalpha production in human PBMC at 10 ug/ml incubated for 24 hrs by flow cytometry analysis. It counts as functional, cell-based. In general terms: In flow cytometry, cells or beads pass a laser one at a time.
The subject of data set [4] is PBMC. The experiment in a line: Induction of IL-8 production in human PBMC at 10 ug/ml incubated for 24 hrs by flow cytometry analysis. It counts as functional, cell-based.
For data set [5], the system named is PBMC. Description: Induction of IL-12p70 production in human PBMC at 10 ug/ml incubated for 24 hrs by flow cytometry analysis. Type of data set: functional, cell-based.
Data set [6] deals with T2, Toll-like receptor 8 (Homo sapiens) (UniProt Q9NR97).
T2 sequence (whole entry): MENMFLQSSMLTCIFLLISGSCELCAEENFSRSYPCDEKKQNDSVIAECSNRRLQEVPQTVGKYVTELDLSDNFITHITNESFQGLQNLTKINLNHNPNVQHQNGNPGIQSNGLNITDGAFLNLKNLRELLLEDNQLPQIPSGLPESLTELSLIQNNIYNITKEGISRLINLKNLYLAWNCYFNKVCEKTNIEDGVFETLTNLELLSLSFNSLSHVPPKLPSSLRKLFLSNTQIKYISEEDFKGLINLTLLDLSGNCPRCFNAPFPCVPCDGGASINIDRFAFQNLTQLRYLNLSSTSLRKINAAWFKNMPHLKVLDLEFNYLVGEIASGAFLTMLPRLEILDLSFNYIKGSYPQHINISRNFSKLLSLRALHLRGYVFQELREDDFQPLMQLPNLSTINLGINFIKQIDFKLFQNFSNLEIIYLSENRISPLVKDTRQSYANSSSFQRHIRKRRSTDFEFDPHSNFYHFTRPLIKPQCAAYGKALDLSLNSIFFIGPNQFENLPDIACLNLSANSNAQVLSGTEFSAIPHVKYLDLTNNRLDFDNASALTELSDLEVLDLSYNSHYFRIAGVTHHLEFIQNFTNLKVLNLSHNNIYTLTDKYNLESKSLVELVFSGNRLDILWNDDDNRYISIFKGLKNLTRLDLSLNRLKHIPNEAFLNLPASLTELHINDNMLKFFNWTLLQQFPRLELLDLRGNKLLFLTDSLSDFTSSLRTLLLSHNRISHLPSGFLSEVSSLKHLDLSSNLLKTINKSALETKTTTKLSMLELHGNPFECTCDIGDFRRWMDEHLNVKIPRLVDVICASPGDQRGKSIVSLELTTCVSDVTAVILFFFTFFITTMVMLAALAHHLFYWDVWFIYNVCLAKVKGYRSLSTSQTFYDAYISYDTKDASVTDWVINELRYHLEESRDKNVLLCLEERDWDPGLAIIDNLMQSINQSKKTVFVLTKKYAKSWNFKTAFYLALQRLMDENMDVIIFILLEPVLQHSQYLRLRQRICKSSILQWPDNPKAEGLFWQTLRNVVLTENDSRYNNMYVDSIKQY
Description: Agonist activity at human TLR8 in HEK293 cells cotransfected with SEAP reporter gene assessed as activity of SEAP incubated for 24 hrs by quanti-blue staining based SEAP reporter gene assay. Type of data set: cell-based.

Data set [7] has as its target T3, Toll-like receptor 7 (Homo sapiens) (UniProt Q9NYK1).
T3 sequence (whole entry): T1 sequence (Q9NYK1 whole entry)
The experiment in a line: Antagonist activity at human TLR7 in HEK293 cells cotransfected with SEAP reporter gene assessed as activity of SEAP preincubated for 2 hrs followed by imiquimod addition further incubated for 24 hrs by quanti-blue staining based SEAP reporter gene assay. Type of data set: cell-based.

Each structure is given as a SMILES string. Activity calls are given as the source filed them. The calls are words filed in the database; no cut-off is given here.

Turning to `FC(F)(F)c1nc(NCCN2CCCCC2)c2ccccc2n1`, the EC50 result in data set [1] (hek293) is reported as “Not Active”. Moreover, the MNTC at 24 h in data set [2] came out at 62.5 µM.
For `CC(C)Cn1cnc2c(N)nc3ccccc3c21` [IMIQUIMOD], the result in data set [3] and in data set [5] was inactive. Moreover, the result in data set [4] was Active. For the same molecule, the EC50 in data set [1] (read-out: EC50) lay within 6.2 to 8.2 µM.
Turning to `FC(F)(F)c1nc(NC2CCN(C3CC3)CC2)c2ccccc2n1`, the outcome in data set [6] and in data set [7] was inactive. In addition, the EC50 in data set [1] (read-out: EC50) is 66.6 µM. The MNTC at 24 h in data set [2] came to 125 µM.
In the case of `CCCCn1cnc2c(=O)oc3ccccc3c21`, the outcome in data set [6] and in data set [7] was inactive. The EC50 in data set [1] (read-out: EC50) turned out to be 107 µM. Also, in data set [2], the MNTC at 24 h is at least 250 µM.
Regarding `CC(C)CNc1nc(C(F)(F)F)nc2ccccc12`, the outcome in data set [6] and in data set [7] was inactive. For the same molecule, the EC50 in data set [1] (read-out: EC50) came to 4.4 µM. The MNTC at 24 h in data set [2] lay in the range of 7.8 to 250 µM.
For the molecule `Oc1nc(C(F)(F)F)nc2ccccc12`, in data set [1] (hek293), the EC50 result is “Not Active”. Also, the MNTC at 24 h in data set [2] turned out to be 62.5 µM.
Regarding `OCCNc1nc(C(F)(F)F)nc2ccccc12`, the result in data set [7] was inactive. For the same molecule, the MNTC at 24 h in data set [2] turned out to be 125 µM.
`Nc1nc(C(F)(F)F)nc2ccccc12`: the EC50 entry in data set [1] (hek293) is on record as “Not Active”. Besides, the MNTC at 24 h in data set [2] stood at 62.5 µM.
Taken in the same sequence, the figures for `COCCn1cnc2c(=O)oc3ccccc3c21` were “Not Active” and at least 250 µM.
On the same counts, the results for `CC1CCCN(c2cc(C(F)(F)F)nc3ccccc23)C1` (stereo not drawn) are “Not Active” and 31.3 µM.
Taken in the same sequence, the figures for `CC(C)Cn1cnc2c(=O)oc3ccc([N+](=O)[O-])cc3c21` were “Not Active” and 62.5 µM.
On to `CC(C)Cn1cnc2c(=O)oc3cc(O)ccc3c21`, for which the outcome in data set [6] and in data set [7] was inactive. In data set [1] (read-out: EC50), the EC50 worked out at 114 µM. In addition, the MNTC at 24 h in data set [2] is at least 250 µM.
Regarding `Cc1ccc2oc(=O)c3ncn(CC(C)C)c3c2c1`, the outcome in data set [6] and in data set [7] was inactive. Moreover, in data set [1] (read-out: EC50), the EC50 worked out at 535 µM. For the same molecule, in data set [2], the MNTC at 24 h was at least 250 µM.
As for `CC1CCCN(c2nc(C(F)(F)F)nc3ccccc23)C1` (stereo not drawn), the result in data set [6] and in data set [7] was inactive. Besides, the EC50 in data set [1] (read-out: EC50) was found to be 4 µM. For the same molecule, in data set [2], the MNTC at 24 h is 62.5 µM.
On to `COCCCn1cnc2c(=O)oc3ccccc3c21`, for which the EC50 result in data set [1] (hek293) is “Not Active”. The MNTC at 24 h in data set [2] is at least 250 µM.
On the same counts, the results for `COc1ccc2oc(=O)c3ncn(CC(C)C)c3c2c1` are “Not Active” and 62.5 µM.
On to `CCCNc1nc(C(F)(F)F)nc2ccccc12`, for which the result in data set [6] and in data set [7] was inactive. The EC50 in data set [1] (read-out: EC50) was determined as 44 µM. Further, the MNTC at 24 h in data set [2] stood at 62.5 µM.
`FC(F)(F)c1nc(Cl)c2ccccc2n1`: the half-maximal effective concentration (EC50) entry in data set [1] (hek293) is on record as “Not Active”. Moreover, in data set [2], the MNTC at 24 h is 31.3 µM.
Taken in the same sequence, the figures for `FC(F)(F)c1nc(NCCc2cnc[nH]2)c2ccccc2n1` were “Not Active” and 31.3 µM.
On the same counts, the results for `FC(F)(F)c1nc(N2CCOCC2)c2ccccc2n1` are “Not Active” and 125 µM.
Taken in the same sequence, the figures for `O=C(O)CNc1nc(C(F)(F)F)nc2ccccc12` were “Not Active” and 31.3 µM.
`CC(C)Cn1cnc2c(=O)oc3ccc(F)cc3c21`: the EC50 result in data set [1] (hek293) is “Not Active”. Moreover, the MNTC at 24 h in data set [2] was at least 250 µM.
Consider `FC(F)(F)c1nc(NC2CCCC2)c2ccccc2n1`, for which the result in data set [6] and in data set [7] was inactive. For the same molecule, the EC50 in data set [1] (read-out: EC50) is 10.9 µM. In addition, the MNTC at 24 h in data set [2] is 62.5 µM.
Consider `CCCn1cnc2c(=O)oc3ccccc3c21`, for which the EC50 entry in data set [1] (hek293) is given as “Not Active”. In addition, the MNTC at 24 h in data set [2] is at least 250 µM.
On the same counts, the results for `Nc1ccc(CNc2nc(C(F)(F)F)nc3ccccc23)cc1` are “Not Active” and 15.6 µM.
As for `CC(C)Cn1cnc2c(=O)oc3ccccc3c21`, the outcome in data set [6] was inactive. Besides, in data set [7], the outcome was Active.
`FC(F)(F)c1nc(NCC2CC2)c2ccccc2n1`: the outcome in data set [6] and in data set [7] was inactive. Moreover, the EC50 in data set [1] (read-out: EC50) came out at 15 µM. Besides, the MNTC at 24 h in data set [2] stood at 31.3 µM.
As to `CC(C)Nc1nc(C(F)(F)F)nc2ccccc12`, the result in data set [6] and in data set [7] was inactive. Further, the EC50 in data set [1] (read-out: EC50) was found to be 57.4 µM. The MNTC at 24 h in data set [2] amounted to 62.5 µM.
Regarding `C=CCn1cnc2c(=O)oc3ccccc3c21`, the EC50 entry in data set [1] (hek293) is on record as “Not Active”. Besides, in data set [2], the MNTC at 24 h is at least 250 µM.
On the same counts, the results for `CN1CCN(c2nc(C(F)(F)F)nc3ccccc23)CC1` are “Not Active” and 7.8 to 250 µM.
As to `FC(F)(F)c1nc(N2CCCC2)c2ccccc2n1`, the outcome in data set [6] and in data set [7] was inactive. Also, in data set [1] (read-out: EC50), the concentration giving a half-maximal response (EC50) came out at 15.4 µM. In addition, the MNTC at 24 h in data set [2] turned out to be 31.3 µM.
On to `COc1ccc2c(c1)oc(=O)c1ncn(CC(C)C)c12`, for which the outcome in data set [6] and in data set [7] was inactive. The EC50 in data set [1] (read-out: EC50) was 279 µM. In data set [2], the MNTC at 24 h was at least 250 µM.
As to `CC(C)n1cnc2c(=O)oc3ccccc3c21`, the EC50 entry in data set [1] (hek293) is reported as “Not Active”. In addition, the MNTC at 24 h in data set [2] is at least 250 µM.
For `CCN(CC)c1ccc2c(c1)oc(=O)c1ncn(CC(C)C)c12`, the result in data set [6] and in data set [7] was inactive. The EC50 in data set [1] (read-out: EC50) was 29.9 µM. Further, the MNTC at 24 h in data set [2] worked out at 62.5 µM.
Take `CCn1cnc2c(=O)oc3ccc(F)cc3c21`: the concentration giving a half-maximal response (EC50) result in data set [1] (hek293) is on record as “Not Active”. In data set [2], the MNTC at 24 h was at least 250 µM.
